Assay results taken from patent US8841453B2, “Hybrid cholinesterase inhibitors” (priority 2011, dated 2014).

Columns and labels:
[1] = target: AChE from the erythrocytes (Homo sapiens (Human), UniProt P22303); assay: Ellman's method, acetylcholinesterase inhibition; format: biochemical; conditions: human erythrocyte AChE, phosphate buffer pH 8.0 as reference
Protocol: (§1) The biological activity of the compounds of general formula (I) towards the cholinesterase inhibition was evaluated using Ellman's method (Ellman, G. L.; Courtney, K. D.; Anders, B.; Featherstone, R. M. Biochem. Pharmacol. 1961, 7, 88-95).
(§2) The inhibitor causes the enzyme activity drop which is dependent on the inhibitor concentration. […] The amount of the hydrolyzed ASCh/BSCh is measured indirectly, by quantification of the product of its reaction with DTNB (5,5′-dithio-bis-2-nitrobenzoic acid). Ellman's method relies therefore on the spectrophotometric quantification of product of the reaction between acylthiocholine and DTNB. IC50 value corresponds to the inhibitor concentration which causes the 50% decrease of the enzyme activity.
(§3) The enzymes are derived from human blood: AChE from the erythrocytes and BChE from the plasma. The phosphate buffer of pH 8.0 is used as the reference compound (lack of inhibition; enzyme activity—100%).

[2] = target: BChE from the plasma (Homo sapiens (Human), UniProt P06276); assay: Ellman's method, butyrylcholinesterase inhibition; format: biochemical; conditions: for IC50: human plasma BChE, Ellman's method, phosphate buffer pH 8.0 as reference; for Selectivity IC50(AChE)/IC50(BChE): ratio of IC50 for AChE to IC50 for BChE
Protocol: as §1, §2, §3

AChE from the erythrocytes, sequence (P22303 32-574 with tags or gaps limits assumed): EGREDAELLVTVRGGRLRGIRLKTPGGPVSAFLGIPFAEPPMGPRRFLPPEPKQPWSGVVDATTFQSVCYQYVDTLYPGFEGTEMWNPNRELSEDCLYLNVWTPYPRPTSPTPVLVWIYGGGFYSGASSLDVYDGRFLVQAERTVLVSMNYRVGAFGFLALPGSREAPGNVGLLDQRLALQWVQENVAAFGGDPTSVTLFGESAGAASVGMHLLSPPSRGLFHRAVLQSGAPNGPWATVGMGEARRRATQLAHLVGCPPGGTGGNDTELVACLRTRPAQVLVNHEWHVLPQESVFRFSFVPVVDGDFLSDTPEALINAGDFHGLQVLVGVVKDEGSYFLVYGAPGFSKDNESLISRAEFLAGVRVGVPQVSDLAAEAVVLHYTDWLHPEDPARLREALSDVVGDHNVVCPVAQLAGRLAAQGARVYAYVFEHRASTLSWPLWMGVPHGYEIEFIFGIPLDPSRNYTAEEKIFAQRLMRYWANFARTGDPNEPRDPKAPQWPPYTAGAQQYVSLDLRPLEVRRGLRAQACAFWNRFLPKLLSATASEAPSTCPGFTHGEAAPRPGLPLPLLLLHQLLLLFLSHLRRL
BChE from the plasma, sequence (P06276 29-602): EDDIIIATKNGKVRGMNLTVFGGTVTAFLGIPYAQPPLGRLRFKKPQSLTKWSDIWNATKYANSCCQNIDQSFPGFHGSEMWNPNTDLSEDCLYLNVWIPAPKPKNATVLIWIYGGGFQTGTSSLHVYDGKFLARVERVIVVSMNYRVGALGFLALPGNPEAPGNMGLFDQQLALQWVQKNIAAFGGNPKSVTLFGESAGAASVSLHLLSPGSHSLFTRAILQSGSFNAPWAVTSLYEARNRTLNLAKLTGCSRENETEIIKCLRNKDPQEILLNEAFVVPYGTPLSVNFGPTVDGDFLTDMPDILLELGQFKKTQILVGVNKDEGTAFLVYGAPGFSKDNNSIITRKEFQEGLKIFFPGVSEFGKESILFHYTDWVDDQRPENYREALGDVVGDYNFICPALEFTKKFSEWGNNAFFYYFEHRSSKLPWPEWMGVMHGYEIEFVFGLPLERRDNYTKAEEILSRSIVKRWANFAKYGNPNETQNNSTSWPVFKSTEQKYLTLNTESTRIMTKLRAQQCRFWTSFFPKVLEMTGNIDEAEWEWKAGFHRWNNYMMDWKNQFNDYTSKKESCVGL

CC(=O)O[C@@]12CCN(C(C)=O)[C@@H]1N(C(C)=O)c1ccc(OC(=O)NCCCCCCNc3c4c(nc5ccccc35)CCCC4)cc12 (stereo in doubt) [Example 7, 1,8-diacetyl-5-({[6-(1,2,3,4-tetrahydroacridin-9-ylamino)hexyl]carbamoyl}oxy)-2,3,8,8a-tetrahydropyrrolo[2,3-b]indol-3a(1H)-yl acetate]
IC50 [1]: 36.8 ± 2.87 nM
IC50 [2]: 3.15 ± 0.83 nM
Selectivity IC50(AChE)/IC50(BChE) [2]: 11.7

CC(=O)NCCc1c[nH]c2ccc(OC(=O)NCCCCCCCNc3c4c(nc5ccccc35)CCCC4)cc12 [Example 1, 3-[2-(acetylamino)ethyl]-1H-indol-5-yl[7-(1,2,3,4-tetrahydroacridin-9-ylamino)heptyl]carbamate]
IC50 [1]: 33.8 ± 2.74 nM
IC50 [2]: 0.25 ± 0.02 nM
Selectivity IC50(AChE)/IC50(BChE) [2]: 135.1

CC(=O)NCCc1c[nH]c2ccc(OC(=O)NCCCCCCNc3c4c(nc5ccccc35)CCCC4)cc12 [Example 3, 3-[2-(acetylamino)ethyl]-1H-indol-5-yl[6-(1,2,3,4-tetrahydroacridin-9-ylamino)hexyl]carbamate]
IC50 [1]: 178 ± 16.3 nM
IC50 [2]: 2.04 ± 0.22 nM
Selectivity IC50(AChE)/IC50(BChE) [2]: 87.4

CC(=O)NCCc1c[nH]c2ccc(OC(=O)NCCCCCCCNc3c4c(nc5cc(Cl)ccc35)CCCC4)cc12 [Example 4, 3-[2-(acetylamino)ethyl]-1H-indol-5-yl{7-[(6-chloro-1,2,3,4-tetrahydroacridin-9-yl)amino]heptyl}carbamate]
Selectivity IC50(AChE)/IC50(BChE) [2]: 20.3

CC(=O)NCCc1c[nH]c2ccc(OC(=O)NCCNc3c4c(nc5cc(Cl)ccc35)CCCC4)cc12 [Example 5, 3-[2-(acetylamino)ethyl]-1H-indol-5-yl{2-[(6-chloro-1,2,3,4-tetrahydroacridin-9-yl)amino]ethyl}carbamate]
Selectivity IC50(AChE)/IC50(BChE) [2]: 0.6

CC(=O)NCCc1c[nH]c2ccc(OC(=O)NCCCNc3c4c(nc5ccccc35)CCCC4)cc12 [Example 8, 3-[2-(acetylamino)ethyl]-1H-indol-5-yl[3-(1,2,3,4-tetrahydroacridin-9-ylamino)propyl]carbamate]
IC50 [1]: 270 ± 19.4 nM
IC50 [2]: 58.2 ± 9.62 nM
Selectivity IC50(AChE)/IC50(BChE) [2]: 4.6

CC(=O)NCCc1c[nH]c2ccc(OC(=O)NCCCCNc3c4c(nc5ccccc35)CCCC4)cc12 [Example 9, 3-[2-(acetylamino)ethyl]-1H-indol-5-yl[4-(1,2,3,4-tetrahydroacridin-9-ylamino)butyl]carbamate]
IC50 [1]: 378 ± 42.4 nM
IC50 [2]: 15.5 ± 2.84 nM
Selectivity IC50(AChE)/IC50(BChE) [2]: 24.4

CC(=O)NCCc1c[nH]c2ccc(OC(=O)NCCCCCNc3c4c(nc5ccccc35)CCCC4)cc12 [Example 10, 3-[2-(acetylamino)ethyl]-1H-indol-5-yl[5-(1,2,3,4-tetrahydroacridin-9-ylamino)pentyl]carbamate]
IC50 [1]: 186 ± 11.2 nM
IC50 [2]: 2.07 ± 0.5 nM
Selectivity IC50(AChE)/IC50(BChE) [2]: 90.1

CC(=O)NCCc1c[nH]c2ccc(OC(=O)NCCCCCCCCNc3c4c(nc5ccccc35)CCCC4)cc12 [Example 11, 3-[2-(acetylamino)ethyl]-1H-indol-5-yl[8-(1,2,3,4-tetrahydroacridin-9-ylamino)octyl]carbamate]
IC50 [1]: 4.61 ± 0.32 nM
IC50 [2]: 0.25 ± 0.03 nM
Selectivity IC50(AChE)/IC50(BChE) [2]: 18.4

CC(=O)NCCc1c[nH]c2ccc(OC(=O)NCCCCCCCNc3c4c(nc5ccc(Cl)cc35)CCCC4)cc12 [Example 12, 3-[2-(acetylamino)ethyl]-1H-indol-5-yl{7-[(7-chloro-1,2,3,4-tetrahydroacridin-9-yl)amino]heptyl}carbamate]
Selectivity IC50(AChE)/IC50(BChE) [2]: 45.3

CC(=O)NCCc1c[nH]c2ccc(OC(=O)NCCNc3c4c(nc5ccc(Cl)cc35)CCCC4)cc12 [Example 13, 3-[2-(acetylamino)ethyl]-1H-indol-5-yl{2-[(7-chloro-1,2,3,4-tetrahydroacridin-9-yl)amino]ethyl}carbamate]
Selectivity IC50(AChE)/IC50(BChE) [2]: 400.1

CC(=O)NCCc1c[nH]c2ccc(OC(=O)NCCCCCCCCCCNc3c4c(nc5ccccc35)CCCC4)cc12 [Example 14, 3-[2-(acetylamino)ethyl]-1H-indol-5-yl[10-(1,2,3,4-tetrahydroacridin-9-ylamino)decyl]carbamate]
IC50 [1]: 1.18 ± 0.12 nM
IC50 [2]: 0.28 ± 0.04 nM
Selectivity IC50(AChE)/IC50(BChE) [2]: 4.2

CC(=O)NCCc1c[nH]c2ccc(OC(=O)NCCCCCCCCCCCCNc3c4c(nc5ccccc35)CCCC4)cc12 [Example 15, 3-[2-(acetylamino)ethyl]-1H-indol-5-yl[12-(1,2,3,4-tetrahydroacridin-9-ylamino)dodecyl]carbamate]
IC50 [1]: 3.8 ± 0.16 nM
IC50 [2]: 0.24 ± 0.08 nM
Selectivity IC50(AChE)/IC50(BChE) [2]: 15.8

CC(=O)NCCc1c[nH]c2ccc(OC(=O)NCCCCCCCCCCNc3c4c(nc5ccc(Cl)cc35)CCCC4)cc12 [Example 16, 3-[2-(acetylamino)ethyl]-1H-indol-5-yl{10-[(7-chloro-1,2,3,4-tetrahydroacridin-9-yl)amino]decyl}carbamate]
IC50 [1]: 1.43 ± 0.02 nM
IC50 [2]: 1.64 ± 0.14 nM
Selectivity IC50(AChE)/IC50(BChE) [2]: 0.9

CC(=O)NCCc1c[nH]c2ccc(OC(=O)NCCCCCCCCCCCCNc3c4c(nc5ccc(Cl)cc35)CCCC4)cc12 [Example 17, 3-[2-(acetylamino)ethyl]-1H-indol-5-yl{12-[(7-chloro-1,2,3,4-tetrahydroacridin-9-yl)amino]dodecyl}carbamate]
IC50 [1]: 7 ± 0.72 nM
IC50 [2]: 0.78 ± 0.16 nM
Selectivity IC50(AChE)/IC50(BChE) [2]: 9

CC(=O)NCCc1c[nH]c2ccc(OC(=O)NCCCCCCCCCCNc3c4c(nc5cc(Cl)ccc35)CCCC4)cc12 [Example 18, 3-[2-(acetylamino)ethyl]-1H-indol-5-yl{10-[(6-chloro-1,2,3,4-tetrahydroacridin-9-yl)amino]decyl}carbamate]
Selectivity IC50(AChE)/IC50(BChE) [2]: 6.7

CC(=O)NCCc1c[nH]c2ccc(OC(=O)NCCCCCCCCCCCCNc3c4c(nc5cc(Cl)ccc35)CCCC4)cc12 [Example 19, 3-[2-(acetylamino)ethyl]-1H-indol-5-yl{12-[(6-chloro-1,2,3,4-tetrahydroacridin-9-yl)amino]dodecyl}carbamate]
Selectivity IC50(AChE)/IC50(BChE) [2]: 19.5
